Measurements taken from US12653892B2, “Composition and method for new therapeutic agents including guanidinium-presenting dendrimers and branched structures” (priority 2020, dated 2026).
In brackets after ≈: the same amount, converted by molar mass. Where two headings read alike, the source gives them in different places.

Key:
S. aureus ATCC 29213 [1] = experiment: MIC by broth microdilution, S. aureus ATCC 29213; format: cell-based; settings: for MIC, Antibiotic +NH2-triguan-6C / MIC, Antibiotic +NO2-triamine-2C / MIC, Antibiotic +NO2-triamine-6C: non-covalent mixture
Description: (§1) Methods—Determination of MICs: MICs for S. aureus, E. faecium, E. coli, P aeruginosa, A. baumannii, K. pneumoniae were determined using broth microdilution in accordance with CLSI methods (Wiegand, I.; Hilpert, K.; Hancock, R. E. W. Agar and Broth Dilution Methods to Determine the Minimal Inhibitory Concentration (MIC) of Antimicrobial Substances. Nat. Protoc. 2008, 3, 163-175). One day prior to each MIC experiment, bacterial strains were streaked for single colonies on TSA plates from frozen glycerol stocks stored at −80° C. Three to five colonies from each plate were harvested with a disposable inoculating loop and resuspended in 500 μL of PBS to create a bacterial suspension. Alternatively, a single colony of the appropriate bacterial strain was added to 4 mL TSB for overnight growth at 37° C. with 200 rpm shaking to create a stationary phase bacterial suspension. The suspension was diluted in PBS to an OD600 of 0.1 (˜[…] CFU/ml), and the OD 0.1 suspension was diluted 1:100 in Mueller Hinton broth (MHB, Difco 257530) just prior to inoculating the 96-well polypropylene treatment plate (Costar 3879). A 50 μL portion of inoculum was added to a treatment plate containing 2-fold serial dilutions of compound in MHB (50 μL of treatment/well) to lend a final total volume of 100 μL/well and a final inoculum density of ˜5×10^5 CFU/ml. The completed assay plate was sealed with Parafilm, placed in a lidded plastic tray lined with moistened paper towels, and incubated at 37° C. for approximately 20 hours. The MIC was read as the lowest treatment concentration where no bacterial growth occurred, as determined by OD600 measurements on a microplate reader. If a different plate or media type was used for a particular test, this is noted below the respective table.

S. aureus ATCC 29213 [2] = settings: cited from earlier work
E. coli BW25113ΔtolC = experiment: MIC by broth microdilution, E. coli BW25113ΔtolC; format: cell-based; settings: Escherichia coli
Description: as §1, with “A 50 μL portion of inoculum was added to a treatment plate containing 2-fold serial dilutions of compound in MHB (50 μL of treatment/well) to lend a final total volume of 100 μL/well and a final inoculum density of ˜5×10^5 CFU/ml. The completed assay plate was sealed with Parafilm, placed in a lidded plastic tray lined with moistened paper towels, and incubated at 37° C. for approximately 20 hours.” left out, “If a different plate or media type was used for a particular test, this is noted below the respective table.” left out

M. smegmatis = experiment: MIC, resazurin readout, M. smegmatis; format: cell-based; settings: Mycolicibacterium smegmatis
Description: (§2) MICs for C. glutamicum and the mycobacteria, M. smegmatis and M. abscessus, were determined as follows. A suspension of stationary phase culture was adjusted with PBS to approximately 10^8 CFU/mL and diluted 1:100 in nutrient media just prior to inoculating 96-well polystyrene treatment plates (Costar 3370). Nutrient media was Mueller Hinton Broth for C. glutamicum and Middlebrook media (Middlebrook 7H9 Broth with 0.2% glycerol and 10% OADC supplement, Difco, BD) for mycobacteria. A 50 μL portion of inoculum was added to a treatment plate containing 2-fold serial dilutions of compounds in the same media (50 μL of treatment/well) to lend a final total volume of 100 μL/well and a final inoculum density of ˜5×10^5 CFU/ml. The completed assay plate was sealed with Parafilm, placed in a lidded plastic tray lined with moistened paper towels, and incubated at 37° C. for around 22 h (C. glutamicum), 42-44 h (M. smegmatis) or 46-48 hours (M. abscessus). […] The MIC was identified as the lowest treatment concentration of drug that prevented color change of resazurin from blue to pink/violet, as determined by measuring fluorescence in a black microtiter plate with excitation at 570 nm and emission at 615 nm on a Molecular Devices M5 microplate reader.

A. baumannii ATCC 19606 = experiment: MIC by broth microdilution, A. baumannii ATCC 19606; format: cell-based; settings: Acinetobacter baumannii, ATCC19606
Description: as §1, with “A 50 μL portion of inoculum was added to a treatment plate containing 2-fold serial dilutions of compound in MHB (50 μL of treatment/well) to lend a final total volume of 100 μL/well and a final inoculum density of ˜5×10^5 CFU/ml. The completed assay plate was sealed with Parafilm, placed in a lidded plastic tray lined with moistened paper towels, and incubated at 37° C. for approximately 20 hours.” left out, “If a different plate or media type was used for a particular test, this is noted below the respective table.” left out

[3] = test system: S. aureus USA400 (MRSA), MW2; experiment: Minimum Bacterial Eradication Concentration (MBEC) assay; format: cell-based
[4] = test system: E. coli NCTC 13846 (colistin-resistant); experiment: MIC by broth microdilution, E. coli NCTC 13846; format: cell-based; settings: Escherichia coli, NCTC13846
Description: as §1, with “A 50 μL portion of inoculum was added to a treatment plate containing 2-fold serial dilutions of compound in MHB (50 μL of treatment/well) to lend a final total volume of 100 μL/well and a final inoculum density of ˜5×10^5 CFU/ml. The completed assay plate was sealed with Parafilm, placed in a lidded plastic tray lined with moistened paper towels, and incubated at 37° C. for approximately 20 hours.” left out, “If a different plate or media type was used for a particular test, this is noted below the respective table.” left out

S. aureus USA400 (MRSA) = experiment: MIC by broth microdilution, S. aureus USA400 (MRSA); format: cell-based; settings: Staphylococcus aureus
Description: as §1, with “A 50 μL portion of inoculum was added to a treatment plate containing 2-fold serial dilutions of compound in MHB (50 μL of treatment/well) to lend a final total volume of 100 μL/well and a final inoculum density of ˜5×10^5 CFU/ml. The completed assay plate was sealed with Parafilm, placed in a lidded plastic tray lined with moistened paper towels, and incubated at 37° C. for approximately 20 hours.” left out, “If a different plate or media type was used for a particular test, this is noted below the respective table.” left out

E. coli BW25113 = experiment: MIC by broth microdilution, E. coli BW25113; format: cell-based; settings: Escherichia coli
Description: as §1, with “A 50 μL portion of inoculum was added to a treatment plate containing 2-fold serial dilutions of compound in MHB (50 μL of treatment/well) to lend a final total volume of 100 μL/well and a final inoculum density of ˜5×10^5 CFU/ml. The completed assay plate was sealed with Parafilm, placed in a lidded plastic tray lined with moistened paper towels, and incubated at 37° C. for approximately 20 hours.” left out, “If a different plate or media type was used for a particular test, this is noted below the respective table.” left out

K. pneumoniae BAA-2146 = experiment: MIC by broth microdilution, K. pneumoniae BAA-2146; format: cell-based; settings: Klebsiella pneumoniae, BAA2146
Description: as §1, with “A 50 μL portion of inoculum was added to a treatment plate containing 2-fold serial dilutions of compound in MHB (50 μL of treatment/well) to lend a final total volume of 100 μL/well and a final inoculum density of ˜5×10^5 CFU/ml. The completed assay plate was sealed with Parafilm, placed in a lidded plastic tray lined with moistened paper towels, and incubated at 37° C. for approximately 20 hours.” left out, “If a different plate or media type was used for a particular test, this is noted below the respective table.” left out

E. coli ATCC 25922 = experiment: MIC by broth microdilution, E. coli ATCC 25922; format: cell-based; settings: Escherichia coli, ATCC25922
Description: as §1

E. coli 25922 = experiment: Time-kill kinetics against E. coli 25922 (FIG. 2); format: cell-based
M. abscessus = experiment: MIC, resazurin readout, M. abscessus; format: cell-based; settings: Mycobacteroides abscessus
Description: as §2

C. glutamicum = experiment: MIC, resazurin readout, C. glutamicum; format: cell-based; settings: Corynebacterium glutamicum
Description: as §2

E. coli UTI89 = experiment: MIC by broth microdilution, E. coli UTI89; format: cell-based; settings: Escherichia coli
Description: as §1, with “A 50 μL portion of inoculum was added to a treatment plate containing 2-fold serial dilutions of compound in MHB (50 μL of treatment/well) to lend a final total volume of 100 μL/well and a final inoculum density of ˜5×10^5 CFU/ml. The completed assay plate was sealed with Parafilm, placed in a lidded plastic tray lined with moistened paper towels, and incubated at 37° C. for approximately 20 hours.” left out, “If a different plate or media type was used for a particular test, this is noted below the respective table.” left out

[5] = S. aureus (ATCC 29213), Mueller Hinton Broth, polypropylene plate
[6] = Staphylococcus aureus, ATCC29213, 20 h, S. aureus (ATCC 29213), Mueller Hinton Broth, polypropylene plate, read-out: MIC, Antibiotic Alone
[7] = S. aureus (ATCC 29213), Mueller Hinton Broth, polypropylene plate, read-out: MIC, Antibiotic Alone
[8] = S. aureus (ATCC 29213), cation-adjusted MHB2, polystyrene microwell plate (Costar 3370)

| Molecule | MIC, Antibiotic +NH2-triguan-6C (S. aureus ATCC 29213 [1]; [5]) [µM] | MIC, Antibiotic +NO2-triamine-2C (S. aureus ATCC 29213 [1]; [5]) [µM] | MIC, Antibiotic +NO2-triamine-6C (S. aureus ATCC 29213 [1]; [5]) [µM] | MIC (S. aureus ATCC 29213 [1]; [6]) [µM] | MIC (S. aureus ATCC 29213 [1]; [7]) [µM] | Literature MIC (S. aureus ATCC 29213 [2]) [µM] | further results |
| --- | --- | --- | --- | --- | --- | --- | --- |
| O=C1CN(/N=C/c2ccc([N+](=O)[O-])o2)C(=O)N1 [Nitrofurantoin] | 128 (≈ 30.5 µg/mL) | 256 (≈ 61 µg/mL) | 256 (≈ 61 µg/mL) | 128 (≈ 30.5 µg/mL) |  |  |  |
| CC1(C)S[C@@H]2[C@H](NC(=O)Cc3ccccc3)C(=O)N2[C@H]1C(=O)O [Penicillin G] | 2 (≈ 0.669 µg/mL) | 4 (≈ 1.34 µg/mL) | 4 (≈ 1.34 µg/mL) |  | 2 (≈ 0.669 µg/mL) | 0.084 to 5.6 |  |
| CO[C@H]1/C=C/O[C@@]2(C)Oc3c(C)c(O)c4c(O)c(c(/C=N/N5CCN(C)CC5)c(O)c4c3C2=O)NC(=O)/C(C)=C\C=C\[C@H](C)[C@H](O)[C@@H](C)[C@@H](O)[C@@H](C)[C@H](OC(C)=O)[C@@H]1C [Rifampicin] | 0.016 (≈ 0.0132 µg/mL) | 0.016 (≈ 0.0132 µg/mL) | 0.016 (≈ 0.0132 µg/mL) | 0.016 (≈ 0.0132 µg/mL) |  |  |  |
| CN(C)[C@@H]1C(O)=C(C(N)=O)C(=O)[C@@]2(O)C(O)=C3C(=O)c4c(O)cccc4[C@@](C)(O)[C@H]3C[C@@H]12 [Tetracycline] |  |  |  |  |  |  | MIC, Antibiotic +NH2-triguan-6C (S. aureus ATCC 29213 [1]; [8]): 2 µM (≈ 0.889 µg/mL); MIC, Antibiotic +NO2-triamine-2C (S. aureus ATCC 29213 [1]; [8]): 2 µM (≈ 0.889 µg/mL); MIC, Antibiotic +NO2-triamine-6C (S. aureus ATCC 29213 [1]; [8]): 2 µM (≈ 0.889 µg/mL); MIC (S. aureus ATCC 29213 [1]; Staphylococcus aureus, ATCC29213, 20 h, S. aureus (ATCC 29213), cation-adjusted MHB2, polystyrene microwell plate (Costar 3370), read-out: MIC, Antibiotic Alone): 2 µM (≈ 0.889 µg/mL) |
| CN[C@H](CC(C)C)C(=O)N[C@H]1C(=O)N[C@@H](CC(N)=O)C(=O)N[C@H]2C(=O)N[C@H]3C(=O)N[C@H](C(=O)N[C@H](C(=O)O)c4cc(O)cc(O)c4-c4cc3ccc4O)[C@H](O)c3ccc(c(Cl)c3)Oc3cc2cc(c3O[C@@H]2O[C@H](CO)[C@@H](O)[C@H](O)[C@H]2O[C@H]2C[C@](C)(N)[C@H](O)[C@H](C)O2)Oc2ccc(cc2Cl)[C@H]1O [Vancomycin] | 1 (≈ 1.45 µg/mL) | 1 (≈ 1.45 µg/mL) | 0.5 to 1 |  |  | 0.34 to 1.4 | MIC (E. coli BW25113ΔtolC): 128 to 256 µM (≈ 186 to 371 µg/mL); MIC (M. smegmatis): 8 to 16 µM (≈ 11.6 to 23.2 µg/mL); MIC (A. baumannii ATCC 19606): 128 µM (≈ 186 µg/mL); MBEC [3]: >512 µM; MIC [4]: 64 to 128 µM (≈ 92.8 to 186 µg/mL); MIC (S. aureus USA400 (MRSA)): 1 µM (≈ 1.45 µg/mL); MIC (E. coli BW25113): 128 µM (≈ 186 µg/mL); MIC (S. aureus ATCC 29213 [1]; Staphylococcus aureus, ATCC29213): 0.5 to 1 µM (≈ 0.725 to 1.45 µg/mL); MIC (S. aureus ATCC 29213 [1]; Staphylococcus aureus, ATCC29213, 20 h, read-out: MIC, Antibiotic Alone): 0.5 to 1 µM (≈ 0.725 to 1.45 µg/mL); MIC (K. pneumoniae BAA-2146): > 256 µM; MIC (E. coli ATCC 25922): 128 µM (≈ 186 µg/mL); Concentration at which effective in time-kill (E. coli 25922): 256 µM; MIC (M. abscessus): 64 µM (≈ 92.8 µg/mL); MIC (C. glutamicum): 0.25 µM (≈ 0.362 µg/mL); MIC (E. coli UTI89): 128 µM (≈ 186 µg/mL) |
| Gentamicin | 0.5 | 0.5 | 1 |  | 0.5 | 0.26 to 2.1 |  |
